Measured values published in US20130071874A1, “SYSTEM AND METHOD FOR ANTI-CANCER DRUG CANDIDATE EVALUATION” (priority 2010, published 2013).

Legend:
[1] = test system: ovarian cancer cell line, CAOV-3; assay: MiCK-type apoptosis drug screening assay, CAOV-3; format: cell-based; settings: CAOV-3 cells; as Example 1 but with higher drug concentrations
From the text: (§1) KU=(VmaxDrug Treated−VmaxControl)×60×y/(ODcell−ODblank).
(§2) Vmax is the maximum kinetic rate, which is the slope of the steep increase in the OD v. time plot when cells are undergoing apoptosis. Vmax in this equation is given in milli-optical density units/hour (mOD/h). ODcell is the initial OD of the control containing cells and ODblank is the initial OD of a blank well containing only medium or medium and drug (the drug may be omitted for some drugs, but for colored drugs in particular it may be included in the blank). y is a coefficient dependent on the cell type being assayed and may be determined experimentally through observation of the cell lines. Further information regarding this equation may be found in Kravtsov et al.
Cancer cells were obtained from exponentially growing cultures in RPMI 1640 medium without phenol red supplemented with 10% heat-inactivated fetal bovine serum, 100 U/ml penicillin and 100 μg/mL streptomycin (complete medium) in humidified air with 5% CO2 at 37° C. Cells were harvested, washed with pre-warmed medium and resuspended in complete medium. Appropriate cell counts and viability were tested.
Cells from each cell line in complete medium were placed in wells of a 96-well plate at a concentration of 2 to 5×10^5 cells/ml. Various dilutions of the drug candidate, Idarubicin, were added to the wells in 5 μL aliquots. Final concentrations for the drug candidate were 0.01, 0.1, 0.5, 1, 5, 10 and 20 μM. The plates were incubated at 37° C. for 30 minutes in a humidified 5% CO2 atmosphere. After this adjustment period, 30 μl of sterile mineral oil was layered on top of each well. The microtiter plate was placed in an incubated spectrophotometer chamber (37° C.) and OD at 600 nm was measured every 5 minutes for a period of 48 hours. The reader was calibrated to zero absorbance using well containing only complete medium and no cells. All tests were performed in triplicate.
Data acquisition and computation was performed using appropriate software. OD readings were plotted against time to provide a kinetic representation of cell responses to the drugs and drug candidate. Kinetic units were calculated for each test well. A kinetic unit below three was considered a negative response and above 3 was considered a positive response. A kinetic unit between 1.5 and 3 was considered a marginal response.
A variety of anti-cancer drugs were tested against a single ovarian cancer cell line, CAOV-3, to determine their suitability for use against ovarian cancer. Tests were performed in a manner similar to those in Example 1, but with higher drug concentrations.

[2] = test system: MOLT-3, an acute T-cell lymphoblastic leukemia; assay: MiCK-type apoptosis drug screening assay (OD 600 nm, kinetic units), MOLT-3; format: cell-based, human; settings: MOLT-3 cells; 0.01-20 μM
From the text: as §1
as §2, with “al. […]” for “al.”
(§3) Cells from each cell line in complete medium were placed in wells of a 96-well plate at a concentration of 2 to 5×10^5 cells/ml. […] The microtiter plate was placed in an incubated spectrophotometer chamber (37° C.) and OD at 600 nm was measured every 5 minutes for a period of 48 hours. The reader was calibrated to zero absorbance using well containing only complete medium and no cells. […]
(§4) Data acquisition and computation was performed using appropriate software. OD readings were plotted against time to provide a kinetic representation of cell responses to the drugs and drug candidate. Kinetic units were calculated for each test well. […]

[3] = test system: RAMOS, a B cell line derived from Burkitt's lymphoma; assay: MiCK-type apoptosis drug screening assay (OD 600 nm, kinetic units), RAMOS; format: cell-based, human; settings: 0.01-20 μM
From the text: as §1
as §2, with “al. […]” for “al.”
as §3, §4

| SMILES | response / suitability (in words) [1] | kinetic unit readings versus concentration (in words) [2] | response versus concentration (in words) [3] |
| --- | --- | --- | --- |
| O=C1c2c(O)ccc(O)c2C(=O)c2c(NCCNCCO)ccc(NCCNCCO)c21 [Mitoxantrone] | positive response at reasonable concentrations |  |  |
| O=C1[O][Pt]2([NH][C@@H]3CCCC[C@H]3[NH]2)[O]C1=O [Oxaliplatin] | not suitable drugs for treating ovarian cancer |  |  |
| CCC1=C[C@@H]2CN(C1)Cc1c([nH]c3ccccc13)[C@@](C(=O)OC)(c1cc3c(cc1OC)N(C)[C@H]1[C@@](O)(C(=O)OC)[C@H](OC(C)=O)[C@]4(CC)C=CCN5CC[C@]31[C@@H]54)C2 [Vinorelbine] | not suitable drugs for treating ovarian cancer |  |  |
| CCc1c2c(nc3ccc(OC(=O)N4CCC(N5CCCCC5)CC4)cc13)-c1cc3c(c(=O)n1C2)COC(=O)[C@]3(O)CC [Irinotecan] | need to use high concentrations of the drug to achieve a positive response |  |  |
| COc1cccc2c1C(=O)c1c(O)c3c(c(O)c1C2=O)C[C@@](O)(C(C)=O)C[C@@H]3O[C@H]1C[C@H](N)[C@H](O)[C@H](C)O1 [Daunorubicin] | positive response at reasonable concentrations |  |  |
| CC(=O)[C@]1(O)Cc2c(O)c3c(c(O)c2[C@@H](O[C@H]2C[C@H](N)[C@H](O)[C@H](C)O2)C1)C(=O)c1ccccc1C3=O [Idarubicin, 4-demethoxydaunorubicin] | positive response at reasonable concentrations | higher kinetic unit readings at lower concentrations | positive response was seen in the Ramos cell line only at high concentrations |
| CO[C@@]12[C@H](COC(N)=O)C3=C(C(=O)C(C)=C(N)C3=O)N1C[C@@H]1N[C@@H]12 [Mitomycin] | positive response at reasonable concentrations |  |  |
